“And” between values parts separate entries of the source, which are not always exact repeats. Equal values may be shown once.

The first series deals with T1, human PPARα (Homo sapiens, UniProt Q07869).
T1 construct: expressed in transfected cells; host or cells: HEK-293
T1 sequence (Q07869 239-466 limits assumed): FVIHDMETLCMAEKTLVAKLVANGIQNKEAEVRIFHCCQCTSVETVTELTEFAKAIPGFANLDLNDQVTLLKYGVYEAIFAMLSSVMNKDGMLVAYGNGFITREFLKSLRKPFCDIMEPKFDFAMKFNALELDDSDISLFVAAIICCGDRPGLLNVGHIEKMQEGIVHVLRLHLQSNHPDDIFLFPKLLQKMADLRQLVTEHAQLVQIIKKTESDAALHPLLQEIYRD
The experiment in a line: in vitro PPARα transactivation (GAL4-LBD luciferase reporter in HEK-293 cells). The format is cell-based. The settings on record: 10 μM. The source says: Generally, suitable PPAR agonists are believed to be useful for attenuating and/or treatment of diabetic dyslipidemia, metabolic syndrome, diabetes, cardiovascular disease, and obesity. The following procedure was used for in vitro determination of PPARα, γ and δ transactivation.
The ligand binding domain of human PPARγ1, PPARα or PPARδ was fused to the C-terminal end of DNA binding domain of yeast transcription factor GAL4 in eukaryotic expression vector. Using SuperFect (Qiagen), HEK-293 cells were transfected with this plasmid and a reporter plasmid harboring the luciferase gene driven under the control of 5 tandem GLA4 response elements. In some experiments, pAdVantage vector (Promega) was used to enhance luciferase expression. Compounds were added approximately 48 hours after transfection at various concentrations and incubated overnight. The cells were lysed and the luciferase activity was measured using the LucLite kit in Top Count (Packard). Luciferase activity was expressed as fold activation relative to untreated cells in the same experiment.
In general terms: A reporter such as luciferase makes a cellular process visible.
Consider `Cc1cccc(Nc2cc(Cl)nc(SCC(=O)O)n2)c1C` [Wyeth 14643, reference compound], for which the “PPARα luciferase fold activation relative to untreated cells” value is 1.7 and 1.6 and 1.4 and 2.5 and 2.7 and 2.4.

Staying with this series, now noted: 50 μM.
With `Cc1cccc(Nc2cc(Cl)nc(SCC(=O)O)n2)c1C` [Wyeth 14643, reference compound], the “PPARα luciferase fold activation relative to untreated cells” value is 3.4 and 5.0 and 4.2 and 5.2 and 4.1 and 6.1 and 4.6 and 4.0.

System in another series: not given
Assay: not given
Settings: not given
As for `CCC(C)(Oc1ccc(OCc2cc(-c3ccc(OCc4ccccc4)cc3)no2)cc1)C(=O)O` (stereo not shown) [Example 3], the melting point (in general, the temperature of the solid-liquid transition) fell in the range of 132 to 134 °C. The same measure, in the same setting: for `CCC(C)(Oc1ccc(OCc2cc(-c3ccc(O)cc3)no2)cc1)C(=O)O` (stereo not shown) [Example 4] the value was 142 to 144 °C. On the same count and under the same terms, under `CC(C)(Oc1ccc(OCc2cc(-c3ccc(C(F)(F)F)cc3)no2)cc1)C(=O)O` [Example 12] stands 166 to 168 °C. `Cc1cc(SCc2cc(-c3ccc(C(F)(F)F)cc3)no2)ccc1OC(C)(C)C(=O)O` [Example 13] gave a melting point of 106 to 108 °C.

Regarding `CC(C)(Sc1ccc(OCc2cc(-c3ccc(C(F)(F)F)cc3)no2)cc1)C(=O)O` [Example 14], the melting point lay in the range of 120 to 122 °C. With `CC[C@@](C)(Oc1ccc(OCCCc2cc(-c3ccccc3)no2)cc1)C(=O)O` [Example 15], the melting point lay in the range of 105 to 108 °C. Same read-out and setting: for `CC[C@](C)(Oc1ccc(OCCCc2cc(-c3ccccc3)no2)cc1)C(=O)O` [Example 16] the value was 121 to 122 °C; for `CC(C)(Oc1ccc(OCc2cc(-c3ccc(-c4ccccc4)cc3)no2)cc1)C(=O)O` [Example 18], 168 to 170 °C; for `CCC(C)(Oc1ccc(OCc2cc(-c3ccc(-c4ccccc4)cc3)no2)cc1)C(=O)O` (stereo not shown) [Example 19], 188 to 190 °C.

Compound `CCC(C)(Oc1ccc(OC/C=C/c2cc(-c3ccccc3)no2)cc1)C(=O)O` (stereo not shown) [Example 20] gave a melting point of 118 to 120 °C. Take `CCC(C)(Oc1ccc(OCCCc2cc(-c3ccc(C(F)(F)F)cc3)no2)cc1)C(=O)O` (stereo not shown) [Example 21]: the melting point was 110 to 112 °C. Still for that read-out and setting: under `CCC(C)(Oc1ccc(OCc2cc(-c3ccc([N+](=O)[O-])cc3)no2)cc1)C(=O)O` (stereo not shown) [Example 22] stands 128 to 130 °C. Take `CCC(C)(Oc1ccc(OCc2cc(-c3ccc(F)cc3)no2)cc1)C(=O)O` (stereo not shown) [Example 23]: the melting point is 118 to 120 °C. On the same count and under the same terms, under `CCC(C)(Oc1ccc(OCc2cc(-c3ccc(C)cc3)no2)cc1)C(=O)OC` (stereo not shown) [Example 29, 2-Methyl-2-[4-(3-(4-methylphenyl)isoxazol-5-ylmethoxy)phenoxy]butyric acid, methyl ester] stands 100 to 102 °C. The same measure, in the same setting: under `CCC(C)(Oc1ccc(OCc2cc(-c3ccc(C)cc3)no2)cc1)C(=O)O` (stereo not shown) [Example 30, 2-Methyl-2-[4-(3-(4-methylphenyl)isoxazol-5-ylmethoxy)phenoxy]butyric acid] stands 138 to 140 °C; under `CCC(C)(Oc1ccc(OCCCc2cc(-c3ccc(C)cc3)no2)cc1)C(=O)O` (stereo not shown) [Example 32, 2-Methyl-2-{4-[3-(3-(4-methylphenyl)isoxazol-5-yl)propoxy]phenoxy}butyric acid], 98 to 100 °C.

In turn, `CCC(C)(Oc1ccc(OCCCc2cc(-c3ccc(Cl)cc3)no2)cc1)C(=O)O` (stereo not shown) [Example 34, 2-Methyl-2-{4-[3-(3-(4-chlorophenyl)isoxazol-5-yl)propoxy]phenoxy}butyric acid] displayed a melting point of 130 to 132 °C.

The values are drawn from patent US20080045580A1, “Novel Isoxazole Compounds Having Ppar Agonist Activity” (DR REDDY'S LABORATORIES LIMITED, priority 2004, published 2008).
